Test results: patent publication US20240197709A1, “POTENTIATING THE TUMOR-SELECTIVE EFFECTS OF NQO1-BIOACTIVATABLE AGENT BY USE OF CMET INHIBITOR” (The Trustees of Indiana University, priority 2022, published 2024)

Tests used:
[1] = system: cellular hydrogen peroxide (H2O2) levels in A549 cells; assay: ROS-Glo H2O2 Assay; assay type: cell-based; settings: A549, DIC 50 μM
Method: FIG. 2-1A. […] Growth media was then replaced with fresh media containing β-lap (3 μM) alone, criz alone (1 μM) or combination±DIC (50 μM) and collected at 15 and 120 min to measure H2O2 production using the ROS-Glo™ H2O2 Assay from Promega (Madison, WI). The assay was performed in three biological replicates.
Next, we sought to investigate the mechanistic role of cMET in promoting resistance to ROS-induced DNA lesions caused by the futile redox cycling of β-lap with NQO1. […] In response to H2O2 stimulation, cMET can translocate into the nucleus where it interacts with PARP1 for activation to enhance the repair of ROS-induced DNA damage. […] Next we performed PARP1 immunoprecipitation studies to determine whether it associates with activated cMET in the nucleus following treatment with β-lap at increasing doses.

[2] = system: A549 NSCLC cell migration and invasion; settings: A549, crizotinib+β-lap+DIC
Method: FIG. 4A. Representative images of A549 NSCLC cell migration at indicated treatment conditions at 16 h post-treatment using a Boyden chamber migration assay: 2 h pre-treatment with criz followed by additional 2 h with criz±β-lap.
FIG. 4B. Bar graph showing quantification of cell migration expressed as a percent of control (vehicle).
FIG. 4C. Representative images of A549 NSCLC cell invasion at indicated treatment conditions at 16 h post-treatment using a matrigel-coated Boyden chamber invasion assay: 2 h pre-treatment with criz followed by additional 2 h with criz±β-lap.
FIG. 4D. Bar graph showing quantification of cell invasion expressed as a percent of control (vehicle).

[3] = system: Capan2 shMET; assay: long-term survival (DNA assay), Capan2 shSCR versus shMET; assay type: cell-based; settings: DIC 50 μM
Source text: FIG. 1-1R. Graph showing relative long-term survival in isogenic Capan2 shSCR versus shMET cell lines using the DNA assay.
Dicoumarol (DIC) is a well-established NQO1 inhibitor (Asher, et al., Biochemistry 2006, 45(20), 6372-8; Motea, et al., Clin Cancer Res 2019, 25(8), 2601-2609; Huang, et al., Cancer Cell 2016, 30(6), 940-952).

[4] = in vivo; cited from earlier work
[5] = system: IMR90 lung fibroblast cell line; assay: long-term cell survival assay, IMR90; assay type: cell-based, human; settings: IMR90, no NQO1, high CAT; criz ± sub-lethal β-lap (3 μM)
Method: FIG. 1D. […] LC50 values were calculated from long-term cell survival graphs using GraphPad PRISM; ND denotes Not Determined even at the highest concentration presented. All error bars represent the mean±SEM. **** p<0.0001, *** p<0.001, ** p<0.01, *p<0.05.

[6] = system: Capan2-mCherry microtumor; assay: 3D spheroid co-culture, tumor cells; assay type: cell-based; settings: 3D co-culture with NIH3T3-GFP; crizotinib 2 μM, β-lap 2 μM or 4 μM
Method: FIG. 5D. Top Inset: Representative brightfield, green (NIH3T3-GFP), red (Capan2-mCherry), and merged images of 3D spheroid co-culture of Capan2-mCherry (cancer cells) and NIH3T3-GFP (normal cells). 3D co-cultures were exposed to specified treatment conditions and imaged at indicated times to monitor drug response. Scale bar=250 μm. Untreated NIH3T3-GFP 3D spheroid culture by itself (imaged at indicated times) was added for reference.
FIG. 5E. Bar graph of Capan2-mCherry 3D spheroid microtumor growth at specified treatment conditions over time. Asterisk (*) indicates synergistic response in the combination treatment compared to the corresponding individual treatments alone.
Next, we investigated the tumor-selectivity and efficacy of our combination treatment strategy using 3D co-culture spheroids of Capan2 PDAC (permanently labelled with mCherry) and NIH3T3 mouse embryonic fibroblast cells (permanently labelled with GFP) to mimic physiological cell-cell and cell-environment interactions during treatment. […] These are consistent with patient data comparing associated normal tissues versus tumors in pancreas (FIGS. 1-1B, 1-1G) and lungs (FIGS. 1A, 1-1B, 1-1H). Using confocal fluorescent microscopy, we noted that NIH3T3-GFP fibroblast cells were surrounding the Capan2-mCherry PDAC cells in the 3D spheroid co-culture (FIG. 5D).

| SMILES | H2O2 formation, DIC added to β-lap+criz [1] | migration and invasion, DIC added to the combination treatment [2] | effect of added DIC on β-lap sensitivity [3] | MTD [4] [mg twice daily] | long-term cell survival (sensitivity) [5] | Capan2-mCherry microtumor growth [6] |
| --- | --- | --- | --- | --- | --- | --- |
| O=c1oc2ccccc2c(O)c1Cc1c(O)c2ccccc2oc1=O [DIC, Dicoumarol] | prevented H2O2 formation | restored the ability of A549 to migrate and invade | rescued | – | – | – |
| C[C@@H](Oc1cc(-c2cnn(C3CCNCC3)c2)cnc1N)c1c(Cl)ccc(F)c1Cl [crizotinib] | – | – | – | 250 | remained resistant | very little effect on tumor growth |
